Legend:
OleT [1] = assay: Decarboxylation of FAs C22 to C4 employing the FDH-CamAB-OleT redox-cascade; assay type: biochemical; settings: for Conversion / Selectivity α-Olefin / Selectivity β-OH / α-Olefin / Selectivity α-OH / Selectivity n-Alkanone: 10 mM substrate
Experimental: Enzymatic reactions (1 mL scale) were quenched by addition of 100 μL 5 N Extraction of substrate and products was performed with 500 μL EtOAc containing 0.1% 1-decanol as internal standard. The organic phase was dried over anhydrous Na2SO4. Derivatization of carboxylic acids (fatty acids and hydroxy acids) to the corresponding methyl esters was achieved by mixing the organic phase with MeOH (2.5:1.5 v/v) followed by supplementation of 5 to 15 μL of 2 M TMSCHN2 (trimethylsilyldiazomethane in diethyl ether). The mixture was incubated for 30 min, 25° C. and 750 rpm before injection into GC-FID or GC-MS, Extraction and derivatization of products and substrates from conversion of short chain FAs ([…]) was performed using the same protocol but all steps were performed on ice to prevent undesired loss of volatile products.
Products from FA substrates with chain lengths ranging from C22 to C10 were separated on a HP5 column (Programm) and detected by GC-FID or GC-MS. Extracted products from conversion of nonanoic acid (I-octene as product) were separated on a DB1702 column (Programm) and detected by GC-FID. Authentic standards of substrates and terminal olefins were treated as described above and were used as references for identification and preparation of calibration curves. Detection of volatile short chain terminal olefins (1-butene/1-propene [ongoing] to 1-heptene) was accomplished by manual injection from vial headspaces into GC-MS, in order to prevent loss of products, the vials containing the reaction mixtures were sealed with a PTFE septum. After conversion the closed vial was heated for 10 min at 80° C., together with a 10 ml syringe (TYPE). From the headspace 2 to 9 μl volumes were injected splitless into a GC-MS chromatograph and analytes were separated on a HP5 column (Programm). Calibration curves for 1-pentene, 1-hexene and 1-heptene were prepared in the same way at 4° C. and using 5% DMF as cosolvent.
The substrate scope of OleT was further investigated by varying the FA chain length from C3 to C22. […] For the first time, short EAs could be decarboxylated to the corresponding olefins, covering the whole spectrum from C11 down to C4. […] Due to the high volatility of short chain olefins, product work up was done at 4° C. […] (2.53 mM product from 5 mM lauric acid). Head-space analysis by GC-MS from reactions with short chain FAs (C8-C5) confirmed the formation of the respective α-olefins, allowing the first biotechnological access to 1-heptene, 1-hexene and 1-pentene and 1-butene with OleT.
Conversion of heptanoic acid was carried out as described in Example 4 using the OleTCamAB-FDH reaction cascade.
Calibration curves for 1-hexene were prepared accordingly ranging from 0.05 to 2 mM. Due to a strong overlap of […] with the peak areas of CO2 and EtOH (FIG. 1, peaks a, b and c) the ion extraction mode of the GC-MS to generate reliable calibration curves was used. Neither CO2 nor EtOH interfered with the product peak area. This can be seen comparing FIGS. 1 and 5 which allow reliable and linear quantification of 1-hexene (FIG. 6) using manual headspace GC-MS injection.
Manual headspace injection into GC-MS was successfully performed for all substrates with chain lengths of C11 to C6. Conversion of 10 mM heptanoic acid allowed reliable formation of up to 1.3 mM 1-hexene without further optimization of the reaction conditions.

OleT [2] = assay: Decarboxylation of stearic and palmitic acid by OleT using O2/CamAB or H2O2 as oxidant; assay type: biochemical; settings: 1 μM OleT, 1 mM substrate
[3] = 200 μM NADPH + O2, CamAB, 60 min
[4] = 1 mM H2O2, 150 min, no CamAB, strong precipitation observed
[5] = 1 mM NADPH + O2, CamAB, 150 min

CCCCCCCCCCCC(=O)O [C12, lauric acid]
product concentration (OleT [1]; 4° C., 5 mM lauric acid): 2.53 mM
Conversion (OleT [1]; 4 °C, 72 h): 33%
Selectivity α-Olefin (OleT [1]; 4 °C, 72 h): 73 % GC-area
Selectivity β-OH (OleT [1]; 4 °C, 72 h): 30 % GC-area
α-Olefin (OleT [1]; 4 °C, 72 h): 3260 µM
Conversion (OleT [1]; 25 °C, 24 h): 3%
α-Olefin (OleT [1]; 25 °C, 24 h): 273 µM

CCCCCCCCC(=O)O [C9, nonanoic acid]
Conversion (OleT [1]; 4 °C, 72 h): 13%
α-Olefin (OleT [1]; 4 °C, 72 h): 1347 µM
Conversion (OleT [1]; 25 °C, 24 h): 18%
Selectivity α-OH (OleT [1]; 25 °C, 24 h): 17 % GC-area
Selectivity α-Olefin (OleT [1]; 25 °C, 24 h): 53 % GC-area
Selectivity β-OH (OleT [1]; 25 °C, 24 h): 30 % GC-area
α-Olefin (OleT [1]; 25 °C, 24 h): 1829 µM

CCCCCC(=O)O [C6, caproic acid/hexanoic acid]
Conversion (OleT [1]; 4 °C, 72 h): 7.7%
α-Olefin (OleT [1]; 4 °C, 72 h): 772 µM
Conversion (OleT [1]; 25 °C, 24 h): 12%
α-Olefin (OleT [1]; 25 °C, 24 h): 1170 µM

CCCCCCCCCC(=O)O [C10, capric acid/decanoic acid]
Conversion (OleT [1]; 4 °C, 72 h): 0.7%
Selectivity α-Olefin (OleT [1]; 4 °C, 72 h): >99 % GC-area
α-Olefin (OleT [1]; 4 °C, 72 h): 71 µM
Conversion (OleT [1]; 25 °C, 24 h): 0.4%
Selectivity α-Olefin (OleT [1]; 25 °C, 24 h): >99 % GC-area
Selectivity β-OH (OleT [1]; 25 °C, 24 h): Traces
α-Olefin (OleT [1]; 25 °C, 24 h): 44 µM

CCCCCCCCCCCCCCCC(=O)O [Palmitic Acid, palmitic acid]
Conversion (OleT [1]; 4 °C, 72 h): 21%
Selectivity n-Alkanone (OleT [1]; 4 °C, 72 h): 6 % GC-area
Selectivity α-OH (OleT [1]; 4 °C, 72 h): <1 % GC-area
Selectivity α-Olefin (OleT [1]; 4 °C, 72 h): 80 % GC-area
Selectivity β-OH (OleT [1]; 4 °C, 72 h): 14 % GC-area
α-Olefin (OleT [1]; 4 °C, 72 h): 2059 µM
Conversion (OleT [1]; 25 °C, 24 h): 11%
Selectivity n-Alkanone (OleT [1]; 25 °C, 24 h): 8 % GC-area
Selectivity α-OH (OleT [1]; 25 °C, 24 h): 3 % GC-area
Selectivity α-Olefin (OleT [1]; 25 °C, 24 h): 72 % GC-area
Selectivity β-OH (OleT [1]; 25 °C, 24 h): 23 % GC-area
α-Olefin (OleT [1]; 25 °C, 24 h): 1111 µM
Coupling (OleT [2]; 200 μM H2O2, 60 min, no CamAB): 33%
TOF (OleT [2]; 200 μM H2O2, 60 min, no CamAB): 65 h⁻¹
TON (OleT [2]; 200 μM H2O2, 60 min, no CamAB): 65
α-Olefin (OleT [2]; 200 μM H2O2, 60 min, no CamAB): 65 µM
Coupling (OleT [2]; 200 μM NADH + O2, CamAB, 6 min): 3%
TOF (OleT [2]; 200 μM NADH + O2, CamAB, 6 min): 60 h⁻¹
TON (OleT [2]; 200 μM NADH + O2, CamAB, 6 min): 60
α-Olefin (OleT [2]; 200 μM NADH + O2, CamAB, 6 min): 6 µM
Coupling (OleT [2]; [3]): 10%
TOF (OleT [2]; [3]): 21 h⁻¹
TON (OleT [2]; [3]): 21
α-Olefin (OleT [2]; [3]): 21 µM
Coupling (OleT [2]; [4]): 7%
TOF (OleT [2]; [4]): 29 h⁻¹
TON (OleT [2]; [4]): 29
α-Olefin (OleT [2]; [4]): 73 µM
Coupling (OleT [2]; 1 mM NADH + O2, CamAB, 60 min): 1%
TOF (OleT [2]; 1 mM NADH + O2, CamAB, 60 min): 9 h⁻¹
TON (OleT [2]; 1 mM NADH + O2, CamAB, 60 min): 9
α-Olefin (OleT [2]; 1 mM NADH + O2, CamAB, 60 min): 9 µM
Coupling (OleT [2]; [5]): 3%
TOF (OleT [2]; [5]): 13 h⁻¹
TON (OleT [2]; [5]): 33
α-Olefin (OleT [2]; [5]): 33 µM

CCCCCCCC(=O)O [C8, caprylic acid/octanoic acid]
Conversion (OleT [1]; 4 °C, 72 h): 1.4%
α-Olefin (OleT [1]; 4 °C, 72 h): 141 µM
Conversion (OleT [1]; 25 °C, 24 h): 3.6%
α-Olefin (OleT [1]; 25 °C, 24 h): 364 µM

CCCCCCC(=O)O [C7, heptanoic acid]
formation of 1-hexene (OleT [1]; 10 mM heptanoic acid, manual headspace GC-MS): up to 1.3 mM
Conversion (OleT [1]; 4 °C, 72 h): 9.5%
α-Olefin (OleT [1]; 4 °C, 72 h): 946 µM
Conversion (OleT [1]; 25 °C, 24 h): 13%
α-Olefin (OleT [1]; 25 °C, 24 h): 1298 µM

Reference: patent publication US9885060B2, “Alkene production” (Evonik Degussa GmbH, priority 2015, dated 2018)
